Data on nine substances can be found in patent US10940201B2, “Nucleic acid derivative having immunostimulatory activity” (Shionogi & Co., Ltd., priority 2015, dated 2021).

In the oligonucleotide strings, read from the 5' end, every base follows the letter of its sugar. An asterisk marks phosphorothioate; unmarked linkages are phosphodiester. Other units and linkages are bracketed, terminal groups are in braces. A string of capitals states the bases alone. d = 2'-deoxy (DNA)

For series [1], the system named is TRP2-specific CTL. Kind of series: CTL inducibility of TRP2 peptide vaccine with adjuvant (tetramer staining). It is filed as in vivo, C57BL/6JJcl mice. The method, then: (§1) C57BL/6JJcl mice (6 to 8 weeks old) were purchased from CLEA Japan, Inc.
(§2) an adjuvant of the present invention or the well-known CpG ODN
The specific immunity was induced by vaccinating a mouse twice at 7 days intervals. Each vaccine was that 100 μg of TRP2 peptide, and 1.57 or 4.71 nmol of an adjuvant of the present invention or well-known CpG ODN, were dissolved in 1×PBS. 100 μL of the vaccine was administered subcutaneous injection on the flank of a mouse.
100 μL of the emulsion vaccine was administered subcutaneous injection on the flank of a mouse twice at 7 days intervals.
(§3) On 7 days after second vaccination, the blood was collected, red blood cells was removed by BD Pharm Lyse (BD pharmingen), and the white blood cells were suspended in FACS buffer (1% fetal bovine serum, 2 mM PBS with EDTA). Anti-mouse CD16/32 monoclonal antibody (BioXcell) was added thereto, and Fc receptor blocking was carried out at 4° C. for 30 minutes. […] Then, staining was carried out with DAPI (Invitrogen) and the cells were washed twice with FACS buffer. It was resuspended in FACS buffer and analyzed by FACS verse Flow Cytometer (BD bioscience) and FAC Suite software (BD bioscience). For analysis, after DAPI negative fraction was gated, white blood cells fraction were provided using forward and side-way scattering as indicators. In the white blood cells fraction, both positive cells of Alexa 647-CD8 and PE-H-2Kb Tetramer were defined as CTLs. CTL ratio in white blood cells was used for evaluation.
After calculation of the average CTL inducibility of each group per experiment, the ratio against average value of CTL inducibility of ssCpG ODN, ODN1826 (SEQ-1) or ODN2006 (SEQ-49) as a control was calculated.
In the case of an adjuvant comprising ODN1826 (Average of CTL inducibility of the adjuvant group)/(Average of CTL inducibility of the ODN1826 group)=the ratio against average value In the case of an adjuvant comprising ODN2006 (Average of CTL inducibility of the adjuvant group)/(Average of CTL inducibility of the ODN2006 group)=the ratio against average value
CTL inducibility of each adjuvant was shown when CTL inducibility of ssCpG ODN was taken as 1, so the bigger value means the higher CTL inducibility.

Series [2] relates to antigen-specific CTL (OVA peptide). Kind of series: CTL inducibility of OVA peptide vaccine with adjuvant (tetramer staining). The series is classed as in vivo, C57BL/6JJcl mice. The settings on record: Table 32, 1.57 nmol/head, ODN1826 (SEQ-1) group = 1. The method, then: as §1, §2
The specific immunity was induced by vaccinating a mouse twice at 7 days intervals. […] 100 μL of the vaccine was administered subcutaneous injection on the flank of a mouse.
as §3, with “CTL ratio in white blood cells was used for evaluation.” left out
After calculation of the average CTL inducibility of each group per experiment, the ratio against average value of CTL inducibility of ssCpG ODN, ODN1826 (SEQ-1) or ODN2006 (SEQ-49) as a control was calculated. […]

Series [3] relates to B16F10 cells. Kind of series: Anti-tumor effect of TRP2 peptide vaccine using an adjuvant. It is filed as in vivo, mouse. The procedure: After immunization by TRP2 peptide vaccine, B16F10 cells (ATTC) which is mouse melanoma expressing TRP2 protein was subcutaneously transplanted to evaluate anti-tumor effect. […] The major and minor axes of the engrafted tumor were measured every 2 to 3 days, and the tumor volume was calculated by the formula: (major axis×minor axis^2)/2 Calculation method for indicators of anti-tumor effect For the adjuvant comprising ODN1826 100·(average tumor volume of adjuvant group)/(average tumor volume of ODN1826 group) For the adjuvant comprising ODN2006 100·(average tumor volume of adjuvant group)/(average tumor volume of ODN2006 group)

Series [4] relates to tumor growth. Kind of series: Anti-tumor effect (tumor inhibition rate) of OVA peptide vaccine with adjuvant. It is filed as in vivo, mouse. As to conditions: Table 32, 1.57 nmol/head, compared to ODN1826 (SEQ-1). The method, then:
After immunization by TRP2 peptide vaccine, B16F10 cells (ATTC) which is mouse melanoma expressing TRP2 protein was subcutaneously transplanted to evaluate anti-tumor effect. In a similar method to Example 3 A), on the next day that tetramer-positive ratio in peripheral blood of mouse vaccinated twice every 7 days was observed, B16F10 cells (1×10^5 cells/mouse) were subcutaneously transplanted in the right shoulder. The major and minor axes of the engrafted tumor were measured every 2 to 3 days, and the tumor volume was calculated by the formula: (major axis×minor axis^2)/2 Calculation method for indicators of anti-tumor effect For the adjuvant comprising ODN1826 100·(average tumor volume of adjuvant group)/(average tumor volume of ODN1826 group) For the adjuvant comprising ODN2006 100·(average tumor volume of adjuvant group)/(average tumor volume of ODN2006 group)
The compound with bigger value has the stronger anti-tumor activity.
The activity of an adjuvant of the present invention having a lipid comprising two acyl chains comprising 10 to 20 carbon atoms as a ligand was examined with OVA peptide.

For series [5], the system named is recombinant PCRV protein. Kind of series: Inducibility of antibody production in immunization by PCRV antigen vaccine (antibody titer). The series is classed as in vivo. As to conditions: A/J mice, recombinant PCRV protein with adjuvant, intradermal; antiserum Day 33; FIG. 15.
Method: Perv nucleotide sequence (SEQ ID NO: 48) derived from Pseudomonas aeruginosa Strain PAO1 was cloned at NdeI-XhoI site in pET21a vector, and Escherichia coli strain BL21 (DE3) was transformed with the prepared plasmid. Strain perV-BL21 (DE3) was cultured in 500 mL of LB/Ampicillin liquid medium at 37° C., and 200 μL of 0.1 M IPTG was added when OD600 became 0.5 to induce expression of recombinant PCRV protein. After culturing at 16° C. for 18 hours, bacteria was separated by a centrifuge, and 15 ml of Buffer A (50 mM Tris-HCl (pH8.0), 0.2M NaCl) comprising 0.5% lysozyme (SIGMA Corporation) was added. After putting at 4° C. for 30 minutes, ultrasonic treatment was carried out. After centrifugation at 12,000 rpm for 10 minutes, soluble fraction was obtained. 1 mL of Ni-NTA agarose gel (QIAGEN) was added to Polyprep column (BIO-RAD Laboratories, Inc) and equilibrated with 10 mL of Buffer A. Soluble fraction was added to the column and passed. […] The resulting recombinant PCRV protein was measured the concentration with BCA assay kit (PIERCE) and kept at −80° C. […]
Antibody titer was measured as blow. […] 20 μL/well of 0.5 N sulfuric acid (Nacalai) was added, and absorbance at 450 nm was measured with a plate reader. The dilution ratio when absorbance at 450 nm is 1.0 was calculated and put as an antibody titer.
The target of series [6] is T1, human TLR9 (Homo sapiens, UniProt Q9NR96).
T1 construct: host or cells: HEK-Blue hTLR9 cells (HEK293)
T1 sequence (Q9NR96 26-1032): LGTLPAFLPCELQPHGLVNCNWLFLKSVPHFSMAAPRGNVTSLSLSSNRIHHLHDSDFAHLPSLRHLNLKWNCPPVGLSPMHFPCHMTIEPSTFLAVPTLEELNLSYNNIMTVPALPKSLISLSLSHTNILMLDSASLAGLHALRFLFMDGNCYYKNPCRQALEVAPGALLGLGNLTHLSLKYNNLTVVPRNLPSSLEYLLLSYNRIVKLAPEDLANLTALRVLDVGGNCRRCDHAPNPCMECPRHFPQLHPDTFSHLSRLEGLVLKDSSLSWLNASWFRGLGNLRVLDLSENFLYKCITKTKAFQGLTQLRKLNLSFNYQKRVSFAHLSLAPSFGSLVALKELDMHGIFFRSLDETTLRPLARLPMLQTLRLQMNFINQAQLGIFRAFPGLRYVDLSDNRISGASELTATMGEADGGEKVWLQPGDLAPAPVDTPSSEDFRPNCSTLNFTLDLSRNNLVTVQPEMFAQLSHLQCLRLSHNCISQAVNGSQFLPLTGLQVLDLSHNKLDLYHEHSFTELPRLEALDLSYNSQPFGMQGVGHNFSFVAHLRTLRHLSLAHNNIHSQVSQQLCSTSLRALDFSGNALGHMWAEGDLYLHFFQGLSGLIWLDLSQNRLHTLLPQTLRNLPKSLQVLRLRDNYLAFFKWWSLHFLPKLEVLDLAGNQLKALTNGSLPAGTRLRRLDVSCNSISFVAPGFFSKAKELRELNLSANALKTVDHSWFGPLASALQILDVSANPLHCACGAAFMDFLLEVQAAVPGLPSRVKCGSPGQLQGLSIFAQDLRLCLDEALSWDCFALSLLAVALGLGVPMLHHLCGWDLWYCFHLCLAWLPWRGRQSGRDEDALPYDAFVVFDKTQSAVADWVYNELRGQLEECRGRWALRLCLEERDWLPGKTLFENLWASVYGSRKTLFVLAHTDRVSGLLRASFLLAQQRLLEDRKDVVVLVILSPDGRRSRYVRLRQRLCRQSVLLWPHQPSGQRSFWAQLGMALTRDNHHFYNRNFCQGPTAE
Kind of series: Reporter assay with HEK-Blue hTLR9 cells (TLR9 agonist activity). As to conditions: Table 30; CpG oligonucleotides except for ODN2006 and their double strands; read-out: EC50. The series is classed as cell-based. The method, then:
HEK-Blue™ hTLR9 cells (Invivogen) used for the reporter assay were made by introducing human TLR9 gene and a reporter gene that secretory alkaline phosphatase gene bound to NF-kB-AP-1 binding region sequence in HEK293 cells, and are the cells stably expressing the both genes. 3.6×10^4 of the cells suspended in HEK-Blue™ Detection ([…]) comprising substrates against the alkaline phosphatase were seeded on the 96 well plate, and 3 nM to 30 μM of a lipid binding double-stranded oligonucleotide of the present invention, the known CpG oligonucleotides (ODN2006, SEQ-49), or adjuvant based on design in Patent Document 1, i.e., ssCpG ODN introducing a lipid ligand (SEQ-142, 143 or 144) was added. After culturing in a 37° C., 5% CO2 incubator for 16 hours, absorbency at 620 nm was measured using the culture supernatant developed a color. The result value was analyzed with TIBCO Spotfire software, and calculated the 50% effective concentration (EC50) of each oligonucleotide.
(In general: Reporter assays use an easily measured gene product as a stand-in for the process of interest.)

Series [7] concerns TRP2-specific CTL. Kind of series: CTL inducibility of TRP2 peptide vaccine with adjuvant (tetramer staining). The series is classed as in vivo, C57BL/6JJcl mice. The source holds these as a separate data set.
The mark [8] stands for this setting: Table 56, 4.71 nmol, SEQ-256 (D35-CpG) group = 1.
The mark [9] stands for this setting: Table 65, 4.71 nmol, respective ssCpG ODN (ODN2216, ODN684, D-LS01) group = 1.

Regarding ODN1826 [SEQ-1], the “Ratio of average value of antigen-specific CTL” value (“Ratio … of antigen-specific CTL” below) in series [1] (Table 31, 1.57 nmol/head, ODN1826 (SEQ-1) group = 1) worked out at 1.00; in series [1] (Table 33, 1.57 nmol/head, ODN1826 (SEQ-1) group = 1), 1.00; in series [1] (Table 34, 1.57 nmol/head, ODN1826 (SEQ-1) group = 1), 1.00; in series [1] (Table 35, 1.57 nmol/head, ODN1826 (SEQ-1) group = 1) it was 1.00; in series [1] (Table 36, 1.57 nmol/head (Montanide 100 μL), ODN1826 (SEQ-1) group = 1), 1.00; in series [1] (Table 37, 1.57 nmol/head, ODN1826 (SEQ-1) group = 1), 1.00. The “Ratio … of antigen-specific CTL” value in series [2] is 1.00. Further, the “CTL inducibility (in words)” value in series [1] (adjuvants comprising ODN1826) is “TRP2-specific CTL was induced”. Also, the “effect of inhibition on tumor progression of B16F10 cells (in words)” value in series [3] is recorded as “little effect of inhibition on tumor progression of B16F10 cells”. Also, the “Tumor inhibition rate (Day 14 after transplantation)” value in series [3] (Table 37, 1.57 nmol/head, compared to ODN1826 (SEQ-1)) stood at 0.00%; in series [4], 0.00%.
Regarding “PCRV protein: recombinant PCRV protein C-end HIS derived from Pseudomonas aeruginosa Strain PAO1, antigen given without adjuvant as control”, the “antibody titer (dilution ratio when absorbance at 450 nm is 1.0)” value in series [5] is reported as 1.3×10^5.
“SEQ-253 (sense dA*dT*dC*dG*dA*dC*dT*dC*dT*dC*dG*dA*dG*dC*dG*dT*dT*dC*dT*dC)”: the EC50 in series [6] came out at 2.87 µM.
As to “SEQ-256 (sense dG*dGdTdGdCdAdTdCdGdAdTdGdCdAdGdGdGdG*dG*dG)”, in series [6], the EC50 was found to be 3420 µM. Moreover, the “Ratio … of antigen-specific CTL” value in series [7] (setting [8]) amounted to 1.00.
The matching figures for “SEQ-258 (sense GGTGCATCGATGCAGGGGGG; antisense CCCCCCTGCATCGATG; phosphorothioate, 5' L4-18 lipid, chemistry not fully specified)”: 16.3 µM and 2.46.
As to “SEQ-342 (dT*dC*dG*dA*dC*dG*dT*dT*dC*dG*dT*dC*dG*dT*dT*dC*dG*dT*dC*dG*dT*dT*dC)”, in series [6], the EC50 was 2.34 µM. The “Ratio … of antigen-specific CTL” value in series [7] (setting [9]) worked out at 1.00.
“SEQ-345 (dT*dC*dG*dC*dG*dA*dC*dG*dT*dT*dC*dG*dC*dC*dC*dG*dA*dC*dG*dT*dT*dC*dG*dG*dT*dA)”: the EC50 in series [6] is 6.28 µM. Moreover, in series [7] (setting [9]), the “Ratio … of antigen-specific CTL” value is given as 1.00.
For “SEQ-351 (dT*dC*dG*dT*dC*dG*dT*dT*dT*dT*dC*dG*dG*dC*dG*dC*dG*dC*dG*dC*dC*dG)”, in series [6], the EC50 came to 11.6 µM.
Take “SEQ-354 (dT*dC*dG*dT*dC*dG*dT*dC*dG*dT*dT*dC*dG*dA*dA*dC*dG*dA*dC*dG*dT*dT*dG*dA*dT)”: the EC50 in series [6] stood at 16900 µM. Further, the “Ratio … of antigen-specific CTL” value in series [1] (Table 66, 4.71 nmol, SEQ-354 (ODN M362) group = 1) came out at 1.00.

The term EC50 denotes the concentration needed to bring the measured effect to its halfway point.
